“And” between values parts separate entries of the source, which are not always exact repeats. Equal values may be shown once. Toxic doses and inconclusive results are not listed. Numbered stars: 1 amine (or outer) side, 2 acyl side, 3 side chain; on linkers, the order of the positions; unused ones are H or OH. Bridge positions count the residues as written; N and C are the ends. Square brackets hold non-standard residues; d marks the D form. Peptide text beside a SMILES is read from it. I, II: the chains in the order shown. Actinocin(1to9) = Cc1c2oc3c(C)ccc(C(=O)[*:2])c3nc-2c(C(=O)[*:1])c(N)c1=O; Hyp = O=C(O)[CH]1C[CH](O)CN1; NMeV = CN[CH](C(=O)O)C(C)C; Sar = CNCC(=O)O
System: P388 leukemia ip, CD2F1 mice, survival T/C
Assay: NCI In Vivo Anticancer Drug Screen. Data for tumor model P388 Leukemia (intraperitoneal) in CD2F1 (CDF1) mice
Details: endpoint: median survival time, higher = longer survival
Procedure, shortened: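 Mice carrying the transplanted tumor received test compound or vehicle. Survival was recorded in each group, and the value is the treated-group measurement divided by that of the vehicle-treated control group.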

[1] = dose: 50.0 mg/kg/injection, schedule: Q04DX003 (ip), vehicle: saline with Tween-80
[2] = dose: 100.0 mg/kg/injection, schedule: Q04DX003 (ip), vehicle: saline with Tween-80
[3] = dose: 200.0 mg/kg/injection, schedule: Q04DX003 (ip), vehicle: saline with Tween-80
[4] = dose: 400.0 mg/kg/injection, schedule: Q04DX003 (ip), vehicle: saline with Tween-80
[5] = dose: 50.0 mg/kg/injection, schedule: Q01DX005 (ip), vehicle: Klucel (hydroxypropylcellulose) (HPC)
[6] = dose: 100.0 mg/kg/injection, schedule: Q01DX005 (ip), vehicle: Klucel (hydroxypropylcellulose) (HPC)
[7] = dose: 200.0 mg/kg/injection, schedule: Q01DX005 (ip), vehicle: Klucel (hydroxypropylcellulose) (HPC)

N#C/C(=C\c1cccc2ccccc12)c1ccc(Cl)cc1
T/C [1]: 94 % of control | T/C [2]: 97 % of control | T/C [3]: 103 % of control | T/C [4]: 97 % of control

CC(=O)OC(C)(C)/C=C/C(=O)[C@](C)(O)[C@H]1[C@H](O)C[C@@]2(C)[C@@H]3CC=C4[C@@H](CC[C@H](O)C4(C)C)[C@]3(CO)C(=O)C[C@]12C
T/C (dose: 0.6 mg/kg/injection, schedule: Q01DX009 (ip), vehicle: saline sonified): 100 % of control | T/C (dose: 1.2 mg/kg/injection, schedule: Q01DX009 (ip), vehicle: saline sonified): 100 % of control | T/C (dose: 2.4 mg/kg/injection, schedule: Q01DX009 (ip), vehicle: saline sonified): 116 % of control

Cc1ccc(S(=O)(=O)NC(CSCc2ccccc2)C(=O)O)cc1 (configuration not stated)
T/C [2]: 100 % of control | T/C [3]: 100 % of control | T/C [4]: 100 % of control

Clc1ccc(C2NCCNCc3ccccc32)cc1 (configuration not stated)
T/C (dose: 25.0 mg/kg/injection, schedule: Q01DX009 (ip), vehicle: saline with Tween-80): 101 % of control | T/C (dose: 50.0 mg/kg/injection, schedule: Q01DX009 (ip), vehicle: saline with Tween-80): 107 % of control | T/C (dose: 100.0 mg/kg/injection, schedule: Q01DX009 (ip), vehicle: saline with Tween-80): 98 % of control and 115 % of control

CCCN(CCC)c1ccc(C(=O)Oc2c(C)cccc2OC)cc1
T/C [5]: 93 % of control | T/C [6]: 102 % of control | T/C [7]: 90 % of control

C/C1=C\C(=O)OCC23CCC4(C)OC4C2OC2CC(OC(=O)/C=C/C=C/C(C(C)O)OCC1O)C3(C)C21CO1 (configuration not stated)
T/C (dose: 1.25 mg/kg/injection, schedule: Q01DX005 (ip), vehicle: saline + alcohol): 121 % of control and 123 % of control | T/C (dose: 5.0 mg/kg/injection, schedule: Q01DX005 (ip), vehicle: saline + alcohol): 124 % of control | T/C (dose: 10.0 mg/kg/injection, schedule: Q01DX005 (ip), vehicle: saline + alcohol): 150 % of control | T/C (dose: 20.0 mg/kg/injection, schedule: Q01DX005 (ip), vehicle: saline + alcohol): 159 % of control

COC(=O)C1CC2(C(=O)O)CC(C(=O)O)(CC(C(=O)OC)C2=O)C1=O (configuration not stated)
T/C [1]: 101 % of control | T/C [2]: 101 % of control | T/C [3]: 104 % of control

CCOP1(=S)NNP(=S)(OCC)NN1 (configuration not stated)
T/C [5]: 96 % of control | T/C [6]: 93 % of control | T/C [7]: 104 % of control

CCCCC1SC2=NCCN2C1(O)c1ccc(Cl)cc1 (configuration not stated)
T/C [5]: 113 % of control | T/C [6]: 109 % of control

Cc1ccc(Nc2cc(C(=O)O)c(Nc3ccc(C)cc3)cc2C(=O)O)cc1
T/C (dose: 50.0 mg/kg/injection, schedule: Q01DX009 (ip), vehicle: Klucel (hydroxypropylcellulose) (HPC)): 102 % of control | T/C (dose: 100.0 mg/kg/injection, schedule: Q01DX009 (ip), vehicle: Klucel (hydroxypropylcellulose) (HPC)): 111 % of control | T/C (dose: 200.0 mg/kg/injection, schedule: Q01DX009 (ip), vehicle: Klucel (hydroxypropylcellulose) (HPC)): 102 % of control

Cc1c2oc3c(C)ccc(C(=O)NC4C(=O)NC(C(C)C)C(=O)N5CCCC5C(=O)N(C)CC(=O)N(C)C(C(C)C)C(=O)OC4C)c3nc-2c(C(=O)NC2C(=O)NC(C(C)C)C(=O)N3CC(O)CC3C(=O)N(C)CC(=O)N(C)C(C(C)C)C(=O)OC2C)c(N)c1=O (configuration not stated) (I: TV[Hyp][Sar][NMeV] / II: TVP[Sar][NMeV]; ester I:1-I:C, II:1-II:C; linker I:N-II:N via Actinocin(1to9); configuration not given here)
T/C (dose: 0.1 mg/kg/injection, schedule: Q01DX009 (ip), vehicle: Klucel (hydroxypropylcellulose) (HPC)): 221 % of control | T/C (dose: 0.2 mg/kg/injection, schedule: Q01DX009 (ip), vehicle: Klucel (hydroxypropylcellulose) (HPC)): 108 % of control | T/C (dose: 0.2 mg/kg/injection, schedule: Q01DX009 (ip), vehicle: water): 151 % of control | T/C (dose: 0.4 mg/kg/injection, schedule: Q01DX009 (ip), vehicle: water): 186 % of control

CCOC(=O)c1cn(C2OC(CO)C(O)C2O)c(=O)nc1N (configuration not stated)
T/C (dose: 50.0 mg/kg/injection, schedule: Q04DX003 (ip), vehicle: saline): 99 % of control | T/C (dose: 100.0 mg/kg/injection, schedule: Q04DX003 (ip), vehicle: saline): 100 % of control | T/C (dose: 200.0 mg/kg/injection, schedule: Q04DX003 (ip), vehicle: saline): 100 % of control | T/C (dose: 400.0 mg/kg/injection, schedule: Q04DX003 (ip), vehicle: saline): 102 % of control

CC[As](CC)SC1CC2C3CCC4=CC(=O)C=CC4(C)C3C(=O)CC2(C)C1C(=O)CC(C)=O (configuration not stated)
T/C [5]: 101 % of control | T/C [6]: 103 % of control | T/C [7]: 94 % of control

From PubChem BioAssay AID330 (DTP/NCI, 2004)
